Counter-ions that a name gives are not always drawn. Where only a bound is given, the exact number is not on record here.

The nature of one data set: physchem. In kind it is physicochemical. From the text: The following data and examples serve to illustrate the invention.
In another data set the test system is malarial infections. Particulars: in words, background; cited from earlier work.
The conditions of data set [1]: in words, background; cited from earlier work.
For data set [2] the following is noted: in words, background; cited from earlier work. The source holds these as a separate data set.

As for `CCCCN(CCCC)CCC(O)c1cc2c(Cl)cc(Cl)cc2c2cc(C(F)(F)F)ccc12` (centres unmarked) [amorphous halofantrine free base], the solubility – broadly, how much of the substance goes into solution per volume – in the data set “physchem” (peanut oil, organic solvent or mixture, miscible/soluble with peanut oil) is over 400000 µg/mL.
As for `CCCCN(CCCC)CCC(O)c1cc2c(Cl)cc(Cl)cc2c2cc(C(F)(F)F)ccc12` (centres unmarked) [crystalline halofantrine free base], the solubility in “physchem” (triglycerides, organic solvent or mixture, solubility in triglycerides) was over 80000 µg/mL.
On to `CCCCN(CCCC)CCC(O)c1cc2c(Cl)cc(Cl)cc2c2cc(C(F)(F)F)ccc12` (centres unmarked) [halofantrine hydrochloride], for which the “effectiveness in the treatment of malarial infections” value with malarial infections is “very effective”. For the same molecule, the solubility in the data set “physchem” (aqueous solutions, solubility in aqueous solutions) was about 1 µg/mL; in “physchem” (peanut oil, organic solvent or mixture, solubility in a triglyceride lipid such as peanut oil), under 1000 µg/mL. For the same molecule, the “absorption after oral administration” value in data set [1] is “poor and often variable”. Besides, the “aqueous and lipid solubility” value in data set [2] is “poor”.
`CCCCN(CCCC)CCC(O)c1cc2c(Cl)cc(Cl)cc2c2cc(C(F)(F)F)ccc12` (centres unmarked) [halofantrine free base]: in “physchem”, the “lipid solubility and miscibility” value was “unexpectedly high”.

The values above are taken from patent US5968987A, “Halofantrine free base for the treatment of malaria and compositions” (priority 1994, dated 1999).
